Measurements from article PMC6149889, “Synthesis, Analysis, Cholinesterase-Inhibiting Activity and Molecular Modelling Studies of 3-(Dialkylamino)-2-hydroxypropyl 4-[(Alkoxy-carbonyl)amino]benzoates and Their Quaternary Ammonium Salts” (Molecules : A Journal of Synthetic Chemistry and Natural …, 2017).
Where two headings read alike, the source gives them in different places.

How the values were obtained:
AChE (electric eel) = AChE (electric eel) (Electrophorus electricus, UniProt O42275); experiment: Ellman assay, 96-well, […] nm; format: biochemical
BuChE (equine serum) = target: T1, BuChE (equine serum) (Equus caballus, UniProt P81908); experiment: Ellman assay, 96-well, […] nm; format: biochemical
T1 construct: gene BCHE
T1 sequence (P81908 whole entry): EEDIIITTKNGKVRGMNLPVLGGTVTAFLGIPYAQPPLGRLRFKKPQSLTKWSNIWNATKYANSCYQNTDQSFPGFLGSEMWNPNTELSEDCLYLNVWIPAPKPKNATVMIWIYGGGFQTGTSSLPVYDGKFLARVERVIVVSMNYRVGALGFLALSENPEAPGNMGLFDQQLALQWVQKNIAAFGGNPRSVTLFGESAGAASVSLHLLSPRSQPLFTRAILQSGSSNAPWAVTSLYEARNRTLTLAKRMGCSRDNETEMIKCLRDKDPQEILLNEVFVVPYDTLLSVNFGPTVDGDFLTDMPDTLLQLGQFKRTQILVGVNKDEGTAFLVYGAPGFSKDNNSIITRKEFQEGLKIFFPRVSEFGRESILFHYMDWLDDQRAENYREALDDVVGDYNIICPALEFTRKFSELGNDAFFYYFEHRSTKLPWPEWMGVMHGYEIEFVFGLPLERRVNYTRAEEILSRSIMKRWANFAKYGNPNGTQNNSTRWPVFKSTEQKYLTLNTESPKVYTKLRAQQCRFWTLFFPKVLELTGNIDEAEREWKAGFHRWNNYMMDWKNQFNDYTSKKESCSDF

Chain of AChE (electric eel) (O42275 24-633): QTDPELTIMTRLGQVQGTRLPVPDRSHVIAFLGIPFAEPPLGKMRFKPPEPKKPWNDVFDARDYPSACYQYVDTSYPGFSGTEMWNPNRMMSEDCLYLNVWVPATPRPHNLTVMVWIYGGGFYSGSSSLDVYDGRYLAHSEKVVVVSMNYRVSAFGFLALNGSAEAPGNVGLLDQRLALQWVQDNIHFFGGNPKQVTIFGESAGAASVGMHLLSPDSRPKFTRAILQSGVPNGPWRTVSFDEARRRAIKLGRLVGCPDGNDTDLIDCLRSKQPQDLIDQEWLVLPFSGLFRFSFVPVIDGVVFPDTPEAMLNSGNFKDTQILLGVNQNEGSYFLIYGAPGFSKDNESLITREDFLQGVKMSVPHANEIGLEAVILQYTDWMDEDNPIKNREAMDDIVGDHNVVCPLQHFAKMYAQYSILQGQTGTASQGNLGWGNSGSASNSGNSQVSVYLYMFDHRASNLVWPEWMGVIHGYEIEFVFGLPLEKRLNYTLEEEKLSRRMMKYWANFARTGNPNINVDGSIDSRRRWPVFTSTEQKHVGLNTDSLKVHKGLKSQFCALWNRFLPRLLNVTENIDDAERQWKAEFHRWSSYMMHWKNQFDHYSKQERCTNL

For `CCOC(=O)Nc1ccc(C(=O)OCC(O)C[N+](C)(C)C)cc1` (stereo not drawn) [6d, (3-{4-[(Ethoxycarbonyl)amino]benzoyloxy}-2-hydroxypropyl)trimethylammonium iodide], the IC50 (AChE (electric eel); read-out: AChE IC50) was > 100 µM and the IC50 (BuChE (equine serum)) was > 100 µM.
In the case of `CCCOC(=O)Nc1ccc(C(=O)OCC(O)C[N+](C)(CC)CC)cc1` (stereo not drawn) [6h, Diethyl (2-hydroxy-3-{4-[(propoxycarbonyl)amino]benzoyloxy}propyl)methylammonium iodide], the IC50 (AChE (electric eel)) is reported as 58 µM and the IC50 (BuChE (equine serum)) is reported as > 100 µM.
For `CCN(CC)CC(O)COC(=O)c1ccc(NC(=O)OC)cc1` (stereo not drawn) [5e, Diethyl-(2-hydroxy-3-{4-[(methoxycarbonyl)amino]benzoyloxy}propyl)ammonium chloride], the IC50 (AChE (electric eel); read-out: AChE IC50) was > 100 µM and the IC50 (BuChE (equine serum)) was > 100 µM.
`CCOC(=O)Nc1ccc(C(=O)OCC(O)C[N+](C)(C)CC)cc1` (stereo not drawn) [6e, (3-{4-[(Ethoxycarbonyl)amino]benzoyloxy}-2-hydroxypropyl)(ethyl)dimethylammonium iodide] was tested, and the IC50 (AChE (electric eel)) was > 100 µM and the IC50 (BuChE (equine serum)) was > 100 µM.
`CC[N+](C)(C)CC(O)COC(=O)c1ccc(NC(=O)OC)cc1` (stereo not drawn) [6b, Ethyl(2-hydroxy-3-{4-[(methoxycarbonyl)amino]benzoyloxy}propyl)dimethylammonium iodide] was tested, and the IC50 (AChE (electric eel); read-out: AChE IC50) was 100 µM and the IC50 (BuChE (equine serum)) was > 100 µM.
In the case of `COC(=O)Nc1ccc(C(=O)OCC(O)C[N+](C)(C)C)cc1` (stereo not drawn) [6a, (2-Hydroxy-3-{4-[(methoxycarbonyl)amino]benzoyloxy}propyl)trimethylammonium iodide], the IC50 (AChE (electric eel)) is reported as > 100 µM and the IC50 (BuChE (equine serum)) is reported as > 100 µM.
With `CCCCOC(=O)Nc1ccc(C(=O)OCC(O)CN(C)C)cc1` (stereo not drawn) [5d, (3-{4-[(Butoxycarbonyl)amino]benzoyloxy}-2-hydroxypropyl)dimethylammonium chloride] the IC50 (AChE (electric eel); read-out: AChE IC50) was > 100 µM and the IC50 (BuChE (equine serum)) was > 100 µM.
`CCCOC(=O)Nc1ccc(C(=O)OCC(O)CN(C)C)cc1` (stereo not drawn) [5c, (2-Hydroxy-3-{4-[(propoxycarbonyl)amino]benzoyloxy}propyl)dimethylammonium chloride] was tested, and the IC50 (AChE (electric eel); read-out: AChE IC50) was > 100 µM and the IC50 (BuChE (equine serum)) was > 100 µM.
`CCCCOC(=O)Nc1ccc(C(=O)OCC(O)C[N+](C)(C)C)cc1` (stereo not drawn) [6i, (3-{4-[(Butoxycarbonyl)amino]benzoyloxy}-2-hydroxypropyl)trimethylammonium iodide] was tested, and the IC50 (AChE (electric eel)) was > 100 µM and the IC50 (BuChE (equine serum)) was > 100 µM.
In the case of `CCOC(=O)Nc1ccc(C(=O)OCC(O)CN(CC)CC)cc1` (stereo not drawn) [5f, (3-{4-[(Ethoxycarbonyl)amino]benzoyloxy}-2-hydroxypropyl)diethylammonium chloride], the IC50 (AChE (electric eel)) is reported as > 100 µM and the IC50 (BuChE (equine serum)) is reported as > 100 µM.
For `COC(=O)Nc1ccc(C(=O)OCC(O)CN(C)C)cc1` (stereo not drawn) [5a, (2-Hydroxy-3-{4-[(methoxycarbonyl)amino]benzoyloxy}propyl)dimethylammonium chloride], the IC50 (AChE (electric eel)) was > 100 µM and the IC50 (BuChE (equine serum)) was > 100 µM.
For `COC(=O)Nc1ccc(C(=O)OCC(O)C[N+](C)(C)C(C)C)cc1` (stereo not drawn) [6c, (2-Hydroxy-3-{4-[(methoxycarbonyl)amino]benzoyloxy}propyl)dimethyl(propan-2-yl)ammonium iodide], the IC50 (AChE (electric eel)) was > 100 µM and the IC50 (BuChE (equine serum)) was > 100 µM.
With `CCOC(=O)Nc1ccc(C(=O)OCC(O)CN(C)C)cc1` (stereo not drawn) [5b, (3-{4-[(ethoxycarbonyl)amino]benzoyloxy}-2-hydroxypropyl)dimethylammonium chloride] the IC50 (AChE (electric eel)) was > 100 µM and the IC50 (BuChE (equine serum)) was > 100 µM.
`CCOC(=O)Nc1ccc(C(=O)OCC(O)C[N+](C)(CC)CC)cc1` (stereo not drawn) [6f, (3-{4-[(Ethoxycarbonyl)amino]benzoyloxy}-2-hydroxypropyl)diethylmethylammonium iodide] was tested, and the IC50 (AChE (electric eel); read-out: AChE IC50) was 56 µM and the IC50 (BuChE (equine serum)) was > 100 µM.
For `CCCOC(=O)Nc1ccc(C(=O)OCC(O)C[N+](C)(C)C)cc1` (stereo not drawn) [6g, (2-Hydroxy-3-{4-[(propoxycarbonyl)amino]benzoyloxy}propyl)trimethylammonium iodide], the IC50 (AChE (electric eel); read-out: AChE IC50) was > 100 µM and the IC50 (BuChE (equine serum)) was > 100 µM.
